Experimental findings from patent US10487093B2, “Heterocyclic compounds, in particular 2-oxo-4,4,5,5,6,6,7,7-octahydrobenzoxazole derivatives, and their use as antibacterial compounds” (priority 2016, dated 2019) are described below.

Test [1] has as its system Haemophilus influenzae ATCC 49247. In words: MIC, broth microdilution (CLSI) versus planktonic bacteria. The format is cell-based. The note with it: ATCC49247; Haemophilus influenzae ATCC 49247; 16-20 h; mode of three independent experiments; read-out: MIC, Hi ATCC 49247. (In general: Dilution methods test growth across graded concentrations, often in twofold steps.)
In a further test the test system is E. coli NCTC 13476. The description is as above. The note with it: NCTC13476; Escherichia coli NCTC 13476; 16-20 h; mode of three independent experiments; read-out: MIC, Ec NCTC 13476. The test is classed as cell-based.
The test system of test [2] is Acinetobacter baumannii NCTC 13420. Described as above. To be noted: NCTC13420; Acinetobacter baumannii NCTC 13420; 16-20 h; mode of three independent experiments; read-out: MIC, Ab NCTC 13420. The format is cell-based.
Test [3] relates to Staphylococcus aureus ATCC 29213. The test is described as above. The test is classed as cell-based. The note with it: ATCC29213; Staphylococcus aureus ATCC 29213; 16-20 h; mode of three independent experiments; read-out: MIC, Sa ATCC 29213.
Test [4] concerns Enterobacter cloacae NCTC 13406. The test is described as above. The test is classed as cell-based. The note with it: NCTC13406; Enterobacter cloacae NCTC 13406; 16-20 h; mode of three independent experiments; read-out: MIC, Ecl NCTC 13406.
For another test, the system named is E. coli MG1655. The test is described as above. The test is classed as cell-based, Escherichia coli. To be noted: Escherichia coli, MG1655, read-out: MIC, Ec MG1655 WT.
Test [5] relates to Enterococcus faecalis ATCC 29212. The description is as above. The format is cell-based. The note with it: ATCC29212, 16-20 h, mode of three independent experiments, read-out: MIC, Ef ATCC 29212.
For a further test, the system named is E. coli MG1655 D87G. The format is cell-based, Escherichia coli. To be noted: compared to the isogenic parent strain E. coli MG1655; D87G mutation on DNA gyrase subunit GyrA.
The subject of the next test is E. coli MG1655 S83L. The format is cell-based, Escherichia coli. The note with it: compared to the isogenic parent strain E. coli MG1655; S83L mutation on DNA gyrase subunit GyrA.
The subject of a further test is E. coli ATCC BAA-2452. Briefly: MIC, broth microdilution (CLSI) versus planktonic bacteria. The note with it: Escherichia coli ATCC BAA-2452; 16-20 h; mode of three independent experiments; read-out: MIC, Ec ATCC BAA 2452. The format is cell-based.
Test [6] relates to Escherichia coli ATCC 25922. The description is as above. The format is cell-based. The note with it: ATCC25922; Escherichia coli ATCC 25922; 16-20 h; mode of three independent experiments; read-out: MIC, Ec ATCC 25922.
Test [7] concerns Acinetobacter baumannii ATCC 19606. Described as above. The test is classed as cell-based. To be noted: ATCC19606; Acinetobacter baumannii ATCC 19606; 16-20 h; mode of three independent experiments; read-out: MIC, Ab ATCC 19606.
The subject of test [8] is human hepatic cell line (HepG2 ATCC HB-8065). Briefly: Human cell viability assay (CellTiter-Glo). The note with it: Homo sapiens, HepG2, 24 h, read-out: IC50 (μg/mL) HepG2.
The test system of test [9] is Streptococcus pneumoniae ATCC 49619. Briefly: MIC, broth microdilution (CLSI) versus planktonic bacteria. The test is classed as cell-based. The note with it: ATCC49619; Streptococcus pneumoniae ATCC 49619; 16-20 h; mode of three independent experiments; read-out: MIC, Sp ATCC 49619.
For test [10], the system named is Pseudomonas aeruginosa ATCC 27853. The test is described as above. The test is classed as cell-based. The note with it: ATCC27853; Pseudomonas aeruginosa ATCC 27853; 16-20 h; mode of three independent experiments; read-out: MIC, Pa ATCC 27853.
Test [11] concerns Enterococcus faecium ATCC 19434. The test is described as above. The format is cell-based. The note with it: ATCC19434, 16-20 h, mode of three independent experiments, read-out: MIC, Efm ATCC 19434.

In brackets after ≈: the same amount, converted by molar mass.

In the case of `N#Cc1ccc2ccc(=O)n(CCCN[C@H]3CC[C@H]4[C@H](C3)OC(=O)N4c3ccc4c(n3)NC(=O)CO4)c2c1` [Compound 60, 1-(3-{[(3aS,6S,7aS)-2-oxo-3-{3-oxo-2H,3H,4H-pyrido[3,2-b][1,4]oxazin-6-yl}-octahydro-1,3-benzoxazol-6-yl]amino}propyl)-2-oxo-1,2-dihydroquinoline-7-carbonitrile], the MIC (in [1]; in the test on E. coli NCTC 13476; in test [2]; in [3]; in test [4]; in the test on E. coli MG1655) was less than 1 µg/mL in each case. For the same compound, the MIC (in test [5]; in the test with E. coli ATCC BAA-2452; in test [6]; in test [7]; in test [9]; in test [10]) was less than 1 µg/mL throughout. The “Fold increase in MIC, E. coli MG1655 D87G” value with E. coli MG1655 D87G is reported as 2 fold. Besides, the “Fold increase in MIC, E. coli MG1655 S83L” value in the test with E. coli MG1655 S83L was 4 fold. Moreover, in test [8], the IC50 was in the range of 10 to 100 µg/mL (≈ 19.4 to 194 µM).

For the compound `NCCCOc1ccc2ccc(=O)n(CCN[C@@H]3CC[C@@H]4[C@@H](C3)OC(=O)N4c3ccc4c(n3)NC(=O)CO4)c2c1` [Compound 3, 1-(2-{[(3aR,6R,7aR)-2-oxo-3-{3-oxo-2H,3H,4H-pyrido[3,2-b][1,4]oxazin-6-yl}-octahydro-1,3-benzoxazol-6-yl]amino}ethyl)-7-(3-aminopropoxy)-1,2-dihydroquinolin-2-one], the MIC in test [1] is 10 to 100 µg/mL (≈ 18.2 to 182 µM); in [2], 10 to 100 µg/mL (≈ 18.2 to 182 µM); in [3], less than 1 µg/mL; in test [4], 10 to 100 µg/mL (≈ 18.2 to 182 µM); in [5] it was less than 1 µg/mL; in test [6], 1 to 10 µg/mL (≈ 1.82 to 18.2 µM). Also, the MIC in test [7] was greater than 100 µg/mL; in test [10], 1 to 10 µg/mL (≈ 1.82 to 18.2 µM). For the same compound, in test [8], the IC50 was greater than 100 µg/mL.

As for `N#Cc1cnc2ccc(=O)n(CCN[C@H]3CC[C@H]4[C@H](C3)OC(=O)N4c3ccc4c(n3)NC(=O)CS4)c2c1` [Compound 77, 5-(2-{[(3aS,6S,7aS)-2-oxo-3-{3-oxo-2H,3H,4H-pyrido[3,2-b][1,4]thiazin-6-yl}-octahydro-1,3-benzoxazol-6-yl]amino}ethyl)-6-oxo-5,6-dihydro-1,5-naphthyridine-3-carbonitrile], the MIC (in test [1]; in the test on E. coli NCTC 13476; in test [2]; in test [3]; in [4]; in test [11]) was less than 1 µg/mL throughout. For the same compound, the MIC in the test on E. coli MG1655 is less than 1 µg/mL; in the test with E. coli ATCC BAA-2452, less than 1 µg/mL; in [6] it was less than 1 µg/mL; in [7] it was less than 1 µg/mL; in test [9], less than 1 µg/mL; in [10], 1 to 10 µg/mL (≈ 1.93 to 19.3 µM). Moreover, the “Fold increase in MIC, E. coli MG1655 D87G” value in the test on E. coli MG1655 D87G is reported as 1 fold. In addition, in the test on E. coli MG1655 S83L, the “Fold increase in MIC, E. coli MG1655 S83L” value came to 1 fold. In [8], the IC50 was greater than 100 µg/mL.

For `COc1cnc2ccc(=O)n(CCN[C@@H]3CC[C@@H]4[C@@H](C3)OC(=O)N4c3ccc4c(n3)NC(=O)CO4)c2n1` [Compound 87, (3aR,6R,7aR)-6-[(2-{3-methoxy-6-oxo-5H,6H-pyrido[2,3-b]pyrazin-5-yl}ethyl)amino]-3-{3-oxo-2H,3H,4H-pyrido[3,2-b][1,4]oxazin-6-yl}-octahydro-1,3-benzoxazol-2-one], the MIC is less than 1 µg/mL in [1]; less than 1 µg/mL in the test with E. coli NCTC 13476; less than 1 µg/mL in test [2]; less than 1 µg/mL in [3]; less than 1 µg/mL in [4]; 1 to 10 µg/mL (≈ 1.97 to 19.7 µM) in test [11]. The MIC (with E. coli MG1655; in [5]; with E. coli ATCC BAA-2452; in test [6]; in test [7]; in test [9]) was less than 1 µg/mL throughout. In test [10], the MIC was less than 1 µg/mL. Also, in the test with E. coli MG1655 D87G, the “Fold increase in MIC, E. coli MG1655 D87G” value was determined as 2 fold. Moreover, in the test on E. coli MG1655 S83L, the “Fold increase in MIC, E. coli MG1655 S83L” value amounted to 2 fold. Also, the IC50 in [8] was in the range of 10 to 100 µg/mL (≈ 19.7 to 197 µM).

In the case of `O=C1COc2ccc(N3C(=O)O[C@H]4C[C@@H](NCCCn5c(=O)ccc6ncc(OC(F)F)cc65)CC[C@@H]43)nc2N1` [Compound 93, 1-(3-{[(3aS,6S,7aS)-2-oxo-3-{3-oxo-2H,3H,4H-pyrido[3,2-b][1,4]oxazin-6-yl}-octahydro-1,3-benzoxazol-6-yl]amino}propyl)-7-(difluoromethoxy)-1,2-dihydro-1,5-naphthyridin-2-one], the MIC was less than 1 µg/mL in test [1]; less than 1 µg/mL with E. coli NCTC 13476; less than 1 µg/mL in [2]; less than 1 µg/mL in [3]; 1 to 10 µg/mL (≈ 1.8 to 18 µM) in test [4]; less than 1 µg/mL with E. coli MG1655. Besides, the MIC (in the test on E. coli ATCC BAA-2452; in test [6]; in test [7]; in test [9]; in [10]) was less than 1 µg/mL throughout. The “Fold increase in MIC, E. coli MG1655 D87G” value in the test with E. coli MG1655 D87G stood at 1 fold. In the test on E. coli MG1655 S83L, the “Fold increase in MIC, E. coli MG1655 S83L” value turned out to be 1 fold. Further, in [8], the IC50 was greater than 100 µg/mL.

Turning to `COc1cnc2ccc(=O)n(CCN[C@H]3CC[C@H]4[C@H](C3)OC(=O)N4c3ccc4c(n3)NC(=O)CO4)c2n1` [Compound 63, (3aS,6S,7aS)-6-[(2-{3-methoxy-6-oxo-5H,6H-pyrido[2,3-b]pyrazin-5-yl}ethyl)amino]-3-{3-oxo-2H,3H,4H-pyrido[3,2-b][1,4]oxazin-6-yl}-octahydro-1,3-benzoxazol-2-one], the MIC (in test [1]; in the test with E. coli NCTC 13476; in [2]; in [3]; in test [4]; with E. coli MG1655) was less than 1 µg/mL throughout. In addition, the MIC (in test [5]; in the test with E. coli ATCC BAA-2452; in [6]; in test [7]; in test [9]; in test [10]) was less than 1 µg/mL throughout. The “Fold increase in MIC, E. coli MG1655 D87G” value with E. coli MG1655 D87G is recorded as 1 fold. Further, the “Fold increase in MIC, E. coli MG1655 S83L” value in the test on E. coli MG1655 S83L is recorded as 1 fold. In addition, the IC50 in test [8] is greater than 100 µg/mL.

Take `COc1cnc2ccc(=O)n(CCN[C@@H]3CC[C@@H]4[C@@H](C3)OC(=O)N4c3ccc4c(n3)NC(=O)CO4)c2c1` [Compound 69, 1-(2-{[(3aR,6R,7aR)-2-oxo-3-{3-oxo-2H,3H,4H-pyrido[3,2-b][1,4]oxazin-6-yl}-octahydro-1,3-benzoxazol-6-yl]amino}ethyl)-7-methoxy-1,2-dihydro-1,5-naphthyridin-2-one]: the MIC (in [1]; with E. coli NCTC 13476; in test [2]; in test [3]; in test [4]; in the test with E. coli MG1655) was less than 1 µg/mL in each case. Moreover, the MIC is less than 1 µg/mL in the test with E. coli ATCC BAA-2452; less than 1 µg/mL in test [6]; less than 1 µg/mL in [7]; less than 1 µg/mL in test [9]; 1 to 10 µg/mL (≈ 1.97 to 19.7 µM) in test [10]. In addition, the “Fold increase in MIC, E. coli MG1655 D87G” value with E. coli MG1655 D87G was found to be 1 fold. Also, the “Fold increase in MIC, E. coli MG1655 S83L” value in the test on E. coli MG1655 S83L was 1 fold. For the same compound, the IC50 in test [8] is greater than 100 µg/mL.
